Results as given in patent publication US20040176431A1, “Antiproliferative 2-(sulfo-phenyl)-aminothiazole derivatives and pharmaceutical compositions, and methods for their use” (Pfizer, Inc., priority 2003, published 2004).

Molecular target: T1, CDK4/cyclin D3 (Homo sapiens, UniProt P11802)
T1 construct: made in house; host or cells: insect cells (baculovirus co-infection)
Test: Inhibition of CDK4/Cyclin D retinoblastoma kinase activity
Type: biochemical
Conditions: for inhibition at 0.1 µM: test compound at 0.1 μM, read-out: % Inhib CDK4/D @ 0.1 μM; for inhibition at 1 µM: test compound at 1 μM (head line shifted: 'mM' printed beside 'Structure'), read-out: % Inhib CDK4/D @ 1 μM; for inhibition at 0.03 µM: test compound at 0.03 (unit cell empty, head line shifted; μM), read-out: % Inhib CDK4/D @ 0.03
Protocol: Cyclin-dependent kinase activity was measured by quantifying the enzyme-catalyzed, time-dependent incorporation of radioactive phosphate from [^32P]ATP or [^33P]ATP into a protein substrate. Unless noted otherwise, assays were performed in 96-well plates in a total volume of 50 μL, in the presence of 10 mM HEPES (N-[2-hydroxyethyl]piperazine-N′-[2-ethanesulfonic acid]) (pH 7.4), 10 mM MgCl2, 25 μM adenosine triphosphate (ATP), 1 mg/mL ovalbumin, 5 μg/mL leupeptin, 1 mM dithiothreitol, 10 mM β-glycerophosphate, 0.1 mM sodium vanadate, 1 mM sodium fluoride, 2.5 mM ethylene glycol-bis(β-aminoethyl ether)-N,N,N′N′-tetraacetic acid (EGTA), 2% (v/v) dimethylsulfoxide, and 0.03-0.4 μCi [^32/33P]ATP per reaction. Reactions were initiated with enzyme, incubated at 30° C., and terminated after 20 minutes by the addition of ethylenediaminetetraacetic acid (EDTA) to 250 mM. The phosphorylated substrate was then captured on a nitrocellulose or phosphocellulose membrane using a 96-well filtration manifold, and unincorporated radioactivity was removed by repeated washing with 0.85% phosphoric acid. Radioactivity was quantified by exposing the dried membranes to a phosphorimager.
Inhibition was measured relative to control wells that contained all reaction components including 2% (v/v) DMSO but no compound, after subtraction of background radioactivity measured in the absence of enzyme. Apparent Ki values of discrete compounds were measured by assaying enzyme activity in the presence of different inhibitor compound concentrations and subtracting the background radioactivity measured in the absence of enzyme. The kinetic parameters (kcat, Km for ATP) were measured for each enzyme under the usual assay conditions by determining the dependence of initial rates on ATP concentration. Inhibition data were fit to an equation for competitive inhibition using Kaleidagraph (Synergy Software), or were fit to an equation for competitive tight-binding inhibition using the software KineTic (BioKin, Ltd.).
A complex of human CDK4 and genetically truncated (1-264) cyclin D3 was purified using traditional biochemical chromatographic techniques from insect cells that had been co-infected with the corresponding baculovirus expression vectors (see e.g., Meijer and Kim, “Chemical Inhibitors of Cyclin-Dependent Kinases,” Methods in Enzymol., 283, 113-128 (1997)). The enzyme complex (5 nM) was assayed with 0.3-0.5 μg of purified recombinant retinoblastoma protein fragment (Rb) as a substrate. The engineered Rb fragment (residues 386-928 of the native retinoblastoma protein; 62.3 kDa) contains the majority of the phosphorylation sites found in the native 106-kDa protein, as well as a tag of six histidine residues for ease of purification. Phosphorylated Rb substrate was captured by microfiltration on a nitrocellulose membrane and quantified using a phosphorimager as described above. For measurement of tight-binding inhibitors, the assay duration was extended to 60 minutes, during which the time-dependence of product formation was linear and initial rate conditions were met.

T1 sequence (P11802 whole entry): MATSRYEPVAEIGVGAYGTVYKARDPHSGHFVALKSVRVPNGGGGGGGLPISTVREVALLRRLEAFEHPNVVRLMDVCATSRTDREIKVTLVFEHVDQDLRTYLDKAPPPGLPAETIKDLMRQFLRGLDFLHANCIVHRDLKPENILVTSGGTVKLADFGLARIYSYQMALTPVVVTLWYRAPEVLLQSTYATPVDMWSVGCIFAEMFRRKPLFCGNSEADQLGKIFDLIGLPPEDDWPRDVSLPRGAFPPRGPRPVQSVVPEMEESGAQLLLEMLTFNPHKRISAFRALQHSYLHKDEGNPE
T1 sequence (P30281 1-264 partner limits assumed): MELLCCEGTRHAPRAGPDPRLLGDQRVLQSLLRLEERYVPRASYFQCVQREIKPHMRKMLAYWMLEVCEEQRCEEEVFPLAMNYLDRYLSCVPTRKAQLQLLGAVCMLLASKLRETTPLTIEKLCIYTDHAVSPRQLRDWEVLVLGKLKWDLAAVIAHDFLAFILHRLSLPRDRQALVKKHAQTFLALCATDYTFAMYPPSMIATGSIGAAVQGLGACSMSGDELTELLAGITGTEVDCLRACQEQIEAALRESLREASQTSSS

SMILES	inhibition at 0.1 µM [%]	inhibition at 1 µM [%]	inhibition at 0.03 µM [%]
C=CCCSc1cccc(Nc2nc(N)c(C(=O)c3c(Cl)cccc3Cl)s2)c1 [DD(46)]	39	50.7	18
Nc1nc(Nc2cccc(SCCN3CCCC3)c2)sc1C(=O)c1c(Cl)cccc1Cl [DD(47)]	7.3	62.9	20
Nc1nc(Nc2cccc(SCc3ncon3)c2)sc1C(=O)c1c(Cl)cccc1Cl [DD(48)]	36	52.2	26
Nc1nc(Nc2cccc(SCC3CNC(=O)O3)c2)sc1C(=O)c1c(Cl)cccc1Cl (stereo not drawn) [DD(49)]	19	54.2	12
CN(C)CCCSc1cccc(Nc2nc(N)c(C(=O)c3c(Cl)cccc3Cl)s2)c1 [DD(50)]	10	80.3	24
Nc1nc(Nc2cccc(SCCN3CCCCC3)c2)sc1C(=O)c1c(Cl)cccc1Cl [DD(51)]	30	75.6	4.1
Nc1nc(Nc2cccc(SCC3CO3)c2)sc1C(=O)c1c(Cl)cccc1Cl (stereo not drawn) [DD(52)]	34	74.9	15
Nc1nc(Nc2cccc(SCC(=O)Nc3ccccc3)c2)sc1C(=O)c1c(Cl)cccc1Cl [DD(55)]	24	63.4	17
Nc1nc(Nc2cccc(SCC3CC3)c2)sc1C(=O)c1c(Cl)cccc1Cl [DD(56)]	17	55.4	2.9
COc1cccc(CSc2cccc(Nc3nc(N)c(C(=O)c4c(Cl)cccc4Cl)s3)c2)c1 [DD(57)]	-9	24.6	-14
Nc1nc(Nc2cccc(SCC3CCCO3)c2)sc1C(=O)c1c(Cl)cccc1Cl (stereo not drawn) [DD(58)]	23	72.7	11
CN1CCCC1CCSc1cccc(Nc2nc(N)c(C(=O)c3c(Cl)cccc3Cl)s2)c1 (stereo not drawn) [DD(59)]	37	57.4	20
CC1(CSc2cccc(Nc3nc(N)c(C(=O)c4c(Cl)cccc4Cl)s3)c2)CO1 (stereo not drawn) [DD(60)]	39	80.1	22

More lines, now with the values ahead:

inhibition at 0.1 µM [%]	inhibition at 1 µM [%]	inhibition at 0.03 µM [%]	SMILES
31	46	23	COC(=O)/C=C/CSc1cccc(Nc2nc(N)c(C(=O)c3c(Cl)cccc3Cl)s2)c1 [DD(44)]
54	79.6	32	Nc1nc(Nc2cccc(SCCCO)c2)sc1C(=O)c1c(Cl)cccc1Cl [DD(45)]
14	31.5	5.6	CC(C)CCSc1cccc(Nc2nc(N)c(C(=O)c3c(Cl)cccc3Cl)s2)c1 [DD(53)]
34	75.2	20	COCCSc1cccc(Nc2nc(N)c(C(=O)c3c(Cl)cccc3Cl)s2)c1 [DD(54)]
57	81.5	20	NC(=O)CSc1cccc(Nc2nc(N)c(C(=O)c3c(Cl)cccc3Cl)s2)c1 [DD(61)]
27	46.4	6.4	CCOC(=O)CCSc1cccc(Nc2nc(N)c(C(=O)c3c(Cl)cccc3Cl)s2)c1 [DD(62)]
29	46.6	-3.8	CC(C)OC(=O)CSc1cccc(Nc2nc(N)c(C(=O)c3c(Cl)cccc3Cl)s2)c1 [DD(63)]
27	22.1	-11	CC(C)=CCSc1cccc(Nc2nc(N)c(C(=O)c3c(Cl)cccc3Cl)s2)c1 [DD(64)]
